These results are taken from patent US12263171B2, “7-, 8-, and 10-substituted amino triazolo quinazoline derivatives as adenosine receptor antagonists, pharmaceutical compositions and their use” (Merck Sharp & Dohme LLC, priority 2018, dated 2025).

Assay [1] addresses human A2b adenosine receptor (Homo sapiens (Human), UniProt P29275). Nature of the assay: A2b radioligand filtration binding assay (tritiated proprietary A2b antagonist, HEK293 membranes). To be noted: for IC50: unstarred values: radioligand binding. The procedure:
Measurement of A2b Binding Affinity
The reported affinity of the compounds of the invention for the human A2b adenosine receptor was determined experimentally using a radioligand filtration binding assay. This assay measures the amount of binding of a tritiated proprietary A2b receptor antagonist, in the presence and absence of a compound of the invention, to membranes made from HEK293 cells recombinantly expressing the human A2b adenosine receptor (Perkin Elmer, Cat. No. ES-013-C).
The filter plate was incubated for at least 1 hour at 55° C. and allowed to dry. The bottom of the filter plate was then sealed with backing tape. […] The plates were then incubated for at least 20 minutes, and then the amount of radioactivity remaining in each well was determined using a TopCount® (Perkin Elmer) scintillation counter. After normalization to total and non-specific binding, the percent effect at each compound concentration was calculated. The plot of percent effect versus the log of compound concentration was analyzed electronically using a 4-parameter logistic fit based on the Levenberg-Marquardt algorithm to generate IC50 values.

Assay [2] addresses human A2a adenosine receptor (Homo sapiens (Human), UniProt P29274). Nature of the assay: A2a receptor affinity radioligand binding assay ([3H] SCH58261, membranes from HEK293 or CHO cells). The conditions noted are these: for IC50: unstarred values: radioligand binding. The procedure: The A2a receptor affinity binding assay measured the amount of binding of a tritiated ligand with high affinity for the A2a adenosine receptor to membranes made from HEK293 or CHO cells recombinantly expressing the human A2a adenosine receptor, in the presence of varying concentrations of a compound of the invention.
Measurement of A2a Binding Affinity Using Radioligand Binding
148 μL, (5 μg/mL) membranes (Perkin Elmer, Cat. No. RBHA2aM4001A) and 2 μL compounds of the invention to be tested (test compound) were transferred to individual wells of a 96-well polypropylene assay plate and incubated for 15 to 30 minutes at room temperature. [^3H] SCH58261 ((7-(2-phenylethyl)-5-amino-2-(2-furyl)-pyrazolo-[4,3-e]-1,2,4-triazolo[1,5-c]pyrimidine)) was diluted in assay buffer (50 mM Tris pH 7.4, 10 mM MgCl2, 0.005% Tween20) to a concentration of 4 nM and 50 μL transferred to each well of the assay plate. […] The assay plate was incubated at room temperature for 60 minutes with agitation. […] Filtering was achieved by aspirating the contents of the assay plate for 5 seconds, then washing and aspirating the contents three times with ice-cooled wash buffer (50 mM Tris-HCl pH 7.4, 150 mM NaCl) and allowing the vacuum manifold to dry the plate for 30 seconds. The filter plate was incubated for at least 1 hour at 55° C. and allowed to dry. The bottom of the filter plate was sealed with backing tape. 40 μL. […] The plate was incubated for at least 20 minutes, and then the amount of radioactivity remaining in each well was determined using a TopCown® (Perkin Elmer) scintillation counter. After normalization to total and non-specific binding, the percent effect at each compound concentration was calculated. The plot of percent effect versus the log of compound concentration was analyzed electronically using a 4-parameter logistic fit based on the Levenberg-Marquardt algorithm to generate IC50 values.

human A2b adenosine receptor, sequence (P29275 whole entry): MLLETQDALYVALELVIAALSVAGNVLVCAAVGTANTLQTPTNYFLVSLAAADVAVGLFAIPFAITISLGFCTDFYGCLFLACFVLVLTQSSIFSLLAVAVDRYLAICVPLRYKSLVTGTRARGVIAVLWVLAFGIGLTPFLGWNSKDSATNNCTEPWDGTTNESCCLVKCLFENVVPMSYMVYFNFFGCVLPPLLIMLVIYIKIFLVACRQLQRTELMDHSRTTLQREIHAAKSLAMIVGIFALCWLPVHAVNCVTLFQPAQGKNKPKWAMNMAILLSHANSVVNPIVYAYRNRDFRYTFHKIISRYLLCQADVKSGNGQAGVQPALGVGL
human A2a adenosine receptor, sequence (P29274 whole entry): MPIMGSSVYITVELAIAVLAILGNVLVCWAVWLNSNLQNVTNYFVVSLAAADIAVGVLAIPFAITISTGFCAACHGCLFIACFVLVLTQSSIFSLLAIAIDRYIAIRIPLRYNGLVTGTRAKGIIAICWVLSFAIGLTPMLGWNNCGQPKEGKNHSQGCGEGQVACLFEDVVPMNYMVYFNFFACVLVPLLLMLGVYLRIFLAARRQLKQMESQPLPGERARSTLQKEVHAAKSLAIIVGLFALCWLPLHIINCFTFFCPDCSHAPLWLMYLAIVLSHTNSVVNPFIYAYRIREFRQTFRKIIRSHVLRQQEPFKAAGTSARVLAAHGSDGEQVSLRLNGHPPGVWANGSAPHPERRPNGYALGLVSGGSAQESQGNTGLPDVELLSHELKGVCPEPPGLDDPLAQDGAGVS

The IC50 is the concentration that inhibits the measured activity by half. As to `COc1cccc2c1nc(N)n1nc([C@@H]3CCCN(c4cnn(C5CCCC5(C)O)c4)C3)nc21` (single isomer, unassigned) [Example 59B], the IC50 in assay [1] was 1.7 nM; in assay [2], 0.3 nM.
Take `COc1c(Cl)ccc2c1nc(N)n1nc(C3CCCN(c4cnn(C)c4)C3)nc21` (single isomer, unassigned) [Example 173, (R or S)-8-chloro-7-methoxy-2-(1-(1-methyl-1H-pyrazol-4-yl)piperidin-3-yl)-[1,2,4]triazolo[1,5-c]quinazolin-5-amine]: the IC50 in assay [1] came out at 403 nM; in assay [2], 3.6 nM.
Consider `COc1cccc2c1nc(N)n1nc([C@@H]3CCCN(c4cnn(CC(C)(C)O)c4C)C3)nc21` [Example 33, (R)-1-(4-(3-(5-amino-7-methoxy-[1,2,4]triazolo[1,5-c]quinazolin-2-yl)piperidin-1-yl)-5-methyl-1H-pyrazol-1-yl)-2-methylpropan-2-ol], for which the IC50 in assay [1] is 320 nM; in assay [2], 0.1 nM.
With `COc1cccc2c1nc(N)n1nc([C@@H]3CCC4CCC3N4c3cnn(C)c3)nc21` (mixture of isomers) [Example 130B], the results for the IC50 in assay [1] and in assay [2] were 3520 nM and 10.3 nM, respectively.
On to `COc1cccc2c1nc(N)n1nc([C@@H]3CCCN(c4cnn(C5(C)CC5)c4)C3)nc21` [Example 20, (R)-7-methoxy-2-(1-(1-(1-methylcyclopropyl)-1H-pyrazol-4-yl)piperidin-3-yl)-[1,2,4]triazolo[1,5-c]quinazolin-5-amine], for which the IC50 in assay [1] stood at 45.1 nM; in assay [2], 0.5 nM.
With `COc1cccc2c1nc(N)n1nc([C@@H]3CCCN(c4cn(C)nn4)C3)nc21` [Example 67, (R)-7-methoxy-2-(1-(1-methyl-1H-1,2,3-triazol-4-yl)piperidin-3-yl)-[1,2,4]triazolo[1,5-c]quinazolin-5-amine], the IC50 in assay [1] was 2 nM; in assay [2] it was 1 nM.
As for `COc1cccc2c1nc(N)n1nc([C@@H]3CCCN(c4cnn(CC(F)(F)F)c4)C3)nc21` [Example 9, (R)-7-methoxy-2-(1-(1-(2,2,2-trifluoroethyl)-1H-pyrazol-4-yl)piperidin-3-yl)-[1,2,4]triazolo[1,5-c]quinazolin-5-amine], the IC50 in assay [1] came to 1 nM; in assay [2] it was 0.7 nM.
`COc1cccc2c1nc(N)n1nc([C@@H]3CCCN(c4cnn(C5CS(=O)(=O)C5)c4)C3)nc21` [Example 121, (R)-3-(4-(3-(5-amino-7-methoxy-[1,2,4]triazolo[1,5-c]quinazolin-2-yl)piperidin-1-yl)-1H-pyrazol-1-yl)thietane 1,1-dioxide]: the IC50 came to 284 nM in assay [1] and 3.6 nM in assay [2].
Take `COc1ccc2c(c1)nc(N)n1nc([C@H]3CC[C@@H](C)N(c4cnn([C@@H](C)C(C)(C)O)c4)C3)nc21` [Example 212A]: the IC50 in assay [1] came to 5480 nM; in assay [2], 221 nM.
Consider `COc1cccc2c1nc(N)n1nc([C@@H]3CCCN(c4cnn([C@H]5CCN(C)C5)c4)C3)nc21` [Example 50, 7-methoxy-2-((R)-1-(1-((S)-1-methylpyrrolidin-3-yl)-1H-pyrazol-4-yl)piperidin-3-yl)-[1,2,4]triazolo[1,5-c]quinazolin-5-amine], for which the IC50 was determined as 160 nM in assay [1] and 0.9 nM in assay [2].
As for `COc1ccc2c(c1)nc(N)n1nc([C@@H]3C[C@H](C)CN(c4cnn(CC(C)(C)O)c4)C3)nc21` (single isomer, unassigned) [Example 195D], the IC50 in assay [1] amounted to 84.9 nM; in assay [2] it was 0.8 nM.
Take `C[C@H]1CC[C@@H](c2nc3c4ccc(C5CNC5)cc4nc(N)n3n2)CN1c1cnn(CC(C)(C)O)c1` (single isomer, unassigned) [Example 208, 1-(4-((2S,5R or 2R,5S)-5-(5-amino-8-(azetidin-3-yl)-[1,2,4]triazolo[1,5-c]quinazolin-2-yl)-2-methylpiperidin-1-yl)-1H-pyrazol-1-yl)-2-methylpropan-2-ol]: the “A2B binding % inh. @ 10000 nM” value in assay [1] (@ 10000 nM, unstarred) came out at 5% inh. @ 10000 nM. In addition, the “A2A binding % inh. @ 10000 nM” value in assay [2] (@ 10000 nM, unstarred) turned out to be 10% inh @ 10000 nM % inh.
As to `COc1cccc2c1nc(N)n1nc([C@@H]3CCCN(c4cnn(C5CCOCC5)n4)C3)nc21` [Example 72, (R)-7-methoxy-2-(1-(2-(tetrahydro-2H-pyran-4-yl)-2H-1,2,3-triazol-4-yl)piperidin-3-yl)-[1,2,4]triazolo[1,5-c]quinazolin-5-amine], the results for the IC50 in assay [1] and in assay [2] were 119 nM and 0.9 nM, respectively.
In the case of `COc1ccc2c(c1)nc(N)n1nc([C@@H]3CCCN(c4cnn([C@@H](C)C(C)(C)O)c4)C3)nc21` [Example 185B, (S)-3-(4-((R)-3-(5-amino-8-methoxy-[1,2,4]triazolo[1,5-c]quinazolin-2-yl)piperidin-1-yl)-1H-pyrazol-1-yl)-2-methylbutan-2-ol], the IC50 in assay [1] amounted to 116 nM; in assay [2], 1 nM.
On to `COc1ccc2c(c1)nc(N)n1nc([C@@H]3CCCN(c4ccc(C(C)=O)cc4)C3)nc21` [Example 193, (R)-1-(4-(3-(5-amino-8-methoxy-[1,2,4]-triazolo[1,5-c]quinazolin-2-yl)piperidin-1-yl)phenyl)ethan-1-one], for which the results for the IC50 in assay [1] and in assay [2] were 130 nM and 2.2 nM, respectively.
Consider `COc1cccc2c1nc(N)n1nc(C3CCC(C)N(c4cnn(CC(C)(C)O)c4)C3)nc21` (single isomer, unassigned) [Example 143D], for which the IC50 was determined as 16.2 nM in assay [1] and 0.5 nM in assay [2].
Consider `COc1cccc2c1nc(N)n1nc([C@@H]3CCCN(c4nn(C)nc4C)C3)nc21` [Example 70, (R)-2-(1-(2,5-dimethyl-2H-1,2,3-triazol-4-yl)piperidin-3-yl)-7-methoxy-[1,2,4]triazolo[1,5-c]quinazolin-5-amine], for which the IC50 is 151 nM in assay [1] and 0.8 nM in assay [2].
As to `COc1cccc2c1nc(N)n1nc([C@@H]3CCCN(c4cn(C5CCOCC5)nc4C(F)F)C3)nc21` [Example 48], the IC50 in assay [1] came to 65.5 nM; in assay [2], 0.6 nM.
Regarding `Cn1cc(N2CCCC(c3nc4c5ccc(Cl)cc5nc(N)n4n3)C2)cn1` (single isomer, unassigned) [Example 200, (R or S)-8-chloro-2-(1-(1-methyl-1H-pyrazol-4-yl)piperidin-3-yl)-[1,2,4]triazolo[1,5-c]quinazolin-5-amine], the figures for the IC50 in assay [1] and in assay [2] were 152 nM and 11.8 nM, respectively.
For `C[C@H]1CC[C@@H](c2nc3c4ccc(C5CCC5)cc4nc(N)n3n2)CN1c1cnn(CC(C)(C)O)c1` [Example 209, 1-(4-((2S,5R)-5-(5-amino-8-cyclobutyl-[1,2,4]triazolo[1,5-c]quinazolin-2-yl)-2-methylpiperidin-1-yl)-1H-pyrazol-1-yl)-2-methylpropan-2-ol], in that order: 328 nM and 28.7 nM.
In the same order, the values of `COc1cccc2c1nc(N)n1nc([C@@H]3CC[C@H](C)N(c4cnn(C(C)C(C)(C)O)c4)C3)nc21` (single isomer, unassigned) [Example 147C] are 779 nM and 3.9 nM.
For `COc1cccc2c1nc(N)n1nc([C@@H]3CCCN(c4nccnc4C)C3)nc21` [Example 101, (R)-7-methox-2-(1-(3-methylpyrazin-2-yl)piperidin-3-yl)-[1,2,4]triazolo[1,5-c]quinazolin-5-amine], in that order: 178 nM and 0.5 nM.
